Read-outs that look alike come from different tables or passages of the source.
What was measured:
[1] = tested on: Pristionchus pacificus young adult animals; assay: Pristionchus pacificus young adult abnormal locomotory behaviour on solid agar; format: in vivo; details: 1 h, read-out: P. pacificus, young adult 1 h any phene at 1 h (EC50 (μM))
Strongyloides ratti L3 = format: in vivo; details: 72 h incubation, 1 replicate
[2] = tested on: Heligmosomoides polygyrus larval stage 3 (L3) worms; format: in vivo; details: 72 h incubation, one replicate
rat VAChT = target: T1, rat VAChT (Rattus norvegicus, UniProt Q62666); assay: Competition binding, displacement of [3H]vesamicol from rat VAChT
T1 sequence (Q62666 1-530): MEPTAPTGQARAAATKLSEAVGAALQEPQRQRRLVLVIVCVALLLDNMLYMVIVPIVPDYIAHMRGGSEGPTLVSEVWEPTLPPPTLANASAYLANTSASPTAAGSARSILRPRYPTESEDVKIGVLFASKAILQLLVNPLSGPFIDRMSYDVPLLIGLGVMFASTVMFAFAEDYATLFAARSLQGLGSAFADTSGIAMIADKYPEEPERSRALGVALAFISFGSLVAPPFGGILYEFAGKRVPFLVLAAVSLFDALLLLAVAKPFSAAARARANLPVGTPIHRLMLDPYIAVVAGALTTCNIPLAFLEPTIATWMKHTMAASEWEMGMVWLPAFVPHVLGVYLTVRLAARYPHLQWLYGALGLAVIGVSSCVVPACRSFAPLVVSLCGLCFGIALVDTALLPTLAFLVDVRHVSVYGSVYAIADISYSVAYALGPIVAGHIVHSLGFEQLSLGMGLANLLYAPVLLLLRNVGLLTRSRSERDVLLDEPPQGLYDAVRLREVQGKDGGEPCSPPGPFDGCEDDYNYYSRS

[3] = tested on: Danio rerio (zebrafish) embryos; assay: Danio rerio (zebrafish) embryo abnormal developmental phenotype; format: in vivo; details: read-out: D. rerio (zebrafish) any phenotype EC50 (μM)
C. elegans L3 larvae = C. elegans L3 larvae abnormal locomotory behaviour on solid agar; details: solid agar MYOB + E. coli OP50, mean of 4 replicates; for % C. elegans L3 larvae any phene 1 h (conc.): 1 h exposure; for % C. elegans L3 larvae any phene 6 h (conc.): 6 h exposure; for % C. elegans L3 larvae any phene 24 h (conc.): 24 h exposure
Experimental: 20 animals were scored after either 1, 6 or 24 hours of exposure to drug (as indicated) per replicate. […] Data are reported as the mean % of animals with abnormal phenotype over 4 independent replicates.

D. immitis microfilariae = D. immitis microfilariae immobility assay; format: in vivo; details: 72 h, read-out: D. immitis microfilariae immobility EC50 (μM)
[4] = tested on: D. immitis larval stage 3 (L3) worms; assay: D. immitis L3 development assay; format: in vivo; details: 72 h, read-out: D. immitis L3 development EC50 (μM)
[5] = displacement of [3H]vesamicol, rat VAChT expressed in P12 cells, read-out: ratVAChT Ki

Compound | EC50 [1] | S. ratti L3 % lethality 25 μM (Strongyloides ratti L3) | H. Polygyrus % lethality L3 25 μM [2] | Ki (rat VAChT) | EC50 [3] | % C. elegans L3 larvae any phene 1 h (conc.) (C. elegans L3 larvae; 3.75 uM) | % C. elegans L3 larvae any phene 6 h (conc.) (C. elegans L3 larvae; 3.75 uM) | % C. elegans L3 larvae any phene 24 h (conc.) (C. elegans L3 larvae; 3.75 uM) | % C. elegans L3 larvae any phene 1 h (conc.) (C. elegans L3 larvae; 15 uM) | % C. elegans L3 larvae any phene 6 h (conc.) (C. elegans L3 larvae; 15 uM) | % C. elegans L3 larvae any phene 24 h (conc.) (C. elegans L3 larvae; 15 uM) | % C. elegans L3 larvae any phene 1 h (conc.) (C. elegans L3 larvae; 60 uM) | % C. elegans L3 larvae any phene 6 h (conc.) (C. elegans L3 larvae; 60 uM) | % C. elegans L3 larvae any phene 24 h (conc.) (C. elegans L3 larvae; 60 uM) | EC50 (D. immitis microfilariae) | EC50 [4] | Ki (rat VAChT; [5])
O[C@@H]1CCCC[C@H]1N1CCC(c2ccccc2)CC1 (racemic) [vesamicol, reference compound] | > 60 µM | 17.3% | 0% | 30.3 nM | 21.1 µM | 0.0% | 0.0% | 0.0% | 0.0% | 0.8% | 0.0% | 11.7% | 1.7% | 0.0% |  |  | 
Cc1cc(N2CCN(CC3CCCCC3)CC2)ccc1[N+](=O)[O-] [V-b] | > 60 µM |  |  |  | 5.1 µM | 2.5% | 0.0% | 0.0% | 20.8% | 3.3% | 0.0% | 62.5% | 41.7% | 9.2% | 5.1 µM | 14 µM | 
Cc1ccc(N2CCN(C3CCC(C)C3)CC2)cc1 (centres unmarked) [VI-a] |  | 28.1% | 31.6% |  | > 15 µM | 58.3% | 1.7% | 0.0% | 98.3% | 74.2% | 20.0% | 100.0% | 100.0% | 100.0% |  | > 50 µM | 411 nM
Cc1ccc(N2CCN(CC3CC4C=CC3C4)CC2)cc1 (centres unmarked) [VI-c] |  | 0% | 7.6% |  | 16.9 µM | 33.8% | 7.5% | 0.0% | 100.0% | 64.2% | 10.0% | 100.0% | 84.2% | 100.0% |  | > 50 µM | 159 nM
Cc1ccc(N2CCN(CC3CC=CCC3)CC2)cc1 (centres unmarked) [VI-e] | 5.7 µM | 31.6% | 0% |  | 32.5 µM | 36.7% | 5.8% | 0.0% | 96.7% | 46.7% | 5.0% | 100.0% | 100.0% | 99.2% |  |  | 208 nM
FC(F)(F)c1cccc(N2CCN(CC3CCCC3)CC2)c1 [VI-k] | > 60 µM | 0% | 34.1% |  | > 60 µM | 18.3% | 0.8% | 0.0% | 94.2% | 30.8% | 8.3% | 95.0% | 70.0% | 80.8% |  |  | 6680 nM

Source: patent US20230339874A1, “PIPERAZINYL COMPOUNDS AND METHODS FOR TREATING NEMATODE INFECTIONS” (The Governing Council of the University of Toronto, priority 2020, published 2023)
